According to patent US20240082255A1 (Board of Regents, The University of Texas System, priority 2017, published 2024):
Entries after “also recorded” stand apart in the source; their conditions may differ.

Key:
MDA-MB-231 cells [1] = experiment: alamar Blue cell viability assay; assay type: cell-based; conditions: MDA-MB-231, imipramine 5-100 μM, 96 hours
Procedure: (§1) The data shown are mean±SEM. *, P<0.05; **, P<0.01; ***, P<0.001; ****, P<0.0001 versus control group, t-test.
(§2) Cell viability was assessed using alamar Blue cell viability assay.

MDA-MB-468 cells = experiment: alamar Blue cell viability assay; assay type: cell-based; conditions: MDA-MB-468, imipramine 5-100 μM, 96 hours
Procedure: as §1, §2

MDA-MB-231 cells [2] = experiment: transwell migration assay; assay type: cell-based; conditions: MDA-MB-231, 20 μM for 48 hrs
MDA-MB-231 cells [3] = experiment: transwell invasion assay; assay type: cell-based; conditions: MDA-MB-231, 20 μM for 48 hrs
[4] = test system: MDA-MB-231 cells implanted into the mammary fat pad; conditions: 16 escalated to 20 or 32 escalated to 40 mg/kg body weight, ip daily for thirty days
Procedure: MDA-MB-231 cells were implanted into the mammary fat pad of athymic nude mice. […] After the 30th day, the mice were euthanized, and the tumors were isolated and processed for molecular and immunohistologic studies. Tumor volume was calculated by using the formula 0.5236L1 (L2)^2, where L1 is long axis and L2 is the short axis of the tumor.

[5] = test system: MDA-MB-231-GFP-luc cells implanted into the mammary fat pad; experiment: orthotopic xenograft study, imipramine and olaparib; assay type: in vivo, athymic nude mice; conditions: weeks 4 and 5; imipramine 40 mg/kg or olaparib 50 mg/kg body weight
Procedure: To evaluate whether imipramine can sensitize the response to olaparib treatment, an orthotopic xenograft study was performed. […] Mice were treated for 4 weeks starting week 1 after tumor implantation. Tumor volumes were measured twice a week.

MDA-MB-231 cells [6] = experiment: RNA seq gene expression profiling; assay type: cell-based; conditions: 96 hours
Procedure: RNA samples were further processed for gene expression profiling using Illumina HiSeq 2000 following manufacturer's standard protocol (Illumina, San Diego, CA). Differential expression analysis was performed by using DEseq, and significant genes with at least 1.5-fold change with p<0.05 were chosen for analysis. Using all significant and differentially expressed genes from the RNA-seq data, Ingenuity Pathway Analysis software (IPA) was used to interpret the biological pathways. Total protein extracted from cell lines were subjected to western blot analysis.

IL-10 = conditions: Mukherjee et al., 2014; cited from earlier work
IL-12 = conditions: Mukherjee et al., 2014; cited from earlier work

Structure (SMILES)	viability of breast cancer cells compared to vehicle-treated cells (MDA-MB-231 cells [1])	viability of breast cancer cells compared to vehicle-treated cells (MDA-MB-468 cells)	migration of breast cancer cells compared with vehicle control (MDA-MB-231 cells [2])	invasion of breast cancer cells compared with vehicle control (MDA-MB-231 cells [3])	tumor growth (mean tumor volume) compared to vehicle control [4]	tumor size compared to vehicle control [4]	tumor weight compared to vehicle control [4]	difference in tumor growth, control vs single agent [5]	expression of cell cycle and DNA repair genes FOXM1, CyclinD1, PLK1, SKP2, XRCC3 and RAD51 (MDA-MB-231 cells [6])	effect on IL-10 (IL-10)	effect on levels of IL-12 (IL-12)
CN(C)CCCN1c2ccccc2CCc2ccccc21 [imipramine]	significantly reduced viability	significantly reduced viability	reduction	reduction	significantly reduced	significantly reduced	reduced tumor weight in a dose dependent manner; also recorded: significantly reduced	significant difference	reduced expression	inhibit	elevate
O=C(c1cc(Cc2n[nH]c(=O)c3ccccc23)ccc1F)N1CCN(C(=O)C2CC2)CC1 [olaparib]								significant difference			
